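Test compounds were applied to cells in 96-well plates for 48 hours at 5 doses. GI50 marks 50% less growth. TGI: total growth inhibition.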
Columns and labels:
Assay in all cases: growth of human tumour cells (NCI), 48 h
[1] = test system: HOP-62 NSCLC
[2] = test system: MALME-3M melanoma
[3] = test system: MCF7 breast
[4] = test system: MOLT-4 leukemia
[5] = test system: NCI-H226 lung
[6] = test system: OVCAR-4 ovarian
[7] = test system: SF-295 CNS
[8] = test system: SF-539 CNS
[9] = test system: SK-MEL-5 melanoma
[10] = test system: U251 CNS

Compound | GI50 [1] | TGI [1] | GI50 [2] | TGI [2] | GI50 [3] | TGI [3] | GI50 [4] | TGI [4] | GI50 [5] | TGI [5] | GI50 [6] | TGI [6] | GI50 [7] | TGI [7] | GI50 [8] | TGI [8] | GI50 [9] | TGI [9] | GI50 [10] | TGI [10]
Nc1nccc(C#Cc2cncnc2Nc2ccc(OCc3cccc(F)c3)c(Cl)c2)n1 | 4.93 µM | 9.17 µM | 5.26 µM | 13.1 µM | 3.99 µM | 8.25 µM | 5.69 µM | 21.5 µM | 4.14 µM | 7.83 µM | 9.53 µM | > 25 µM | 11.7 µM | > 25 µM | 5.58 µM | 14.1 µM | 3.51 µM | 6.8 µM | 3.82 µM | 7.42 µM
COC12c3ccccc3-c3ccccc3C1[C@@H](C(=O)O)[C@H]2C(=O)O (stereo partly specified) | – | > 10 µM | – | > 10 µM | – | > 10 µM | – | > 10 µM | – | > 10 µM | – | > 10 µM | – | > 10 µM | – | > 10 µM | – | > 10 µM | – | > 10 µM
Cc1ccc(C)c(NC(=O)CCC(=O)CC(=O)C(C)(C)C)c1 | – | > 100 µM | – | > 100 µM | – | – | – | > 100 µM | – | – | – | > 100 µM | – | – | – | > 100 µM | – | > 100 µM | – | > 100 µM
CN(C)c1ccc(N=C(C#N)c2nc(N)nc(N3CCOCC3)n2)cc1 | 55.2 µM | > 100 µM | 16.4 µM | 49.4 µM | – | – | 60.8 µM | > 100 µM | > 100 µM | > 100 µM | 46.6 µM | > 100 µM | 15.9 µM | 31.3 µM | 21.4 µM | 46.1 µM | 40.4 µM | > 100 µM | 32.9 µM | > 100 µM
Nc1ncn([C@@H]2C=C(CO)C(O)C2O)c(=O)n1 (stereo partly specified) | – | > 100 µM | – | > 100 µM | – | – | – | > 100 µM | – | > 100 µM | – | > 100 µM | – | > 100 µM | – | > 100 µM | – | > 100 µM | – | > 100 µM
O=C1/C(=C/c2ccccc2Cl)COc2ccccc21 | – | 35 µM | – | 29.7 µM | – | – | – | 68.1 µM | – | – | – | – | – | 37.6 µM | – | 31 µM | – | – | – | 26.9 µM
CC1(C)CC[C@]2(C(=O)O)CCC3(C)C(=CCC4[C@@]5(C)CC[C@H](OC6OCC(O)C(O)C6OC6OC(CO)C(O)C(O)C6O)C(C)(C)C5CC[C@]43C)C2C1 (stereo partly specified) | – | 4.16 µM | – | 3.54 µM | – | – | – | 7.95 µM | – | 3.38 µM | – | 3.05 µM | – | 3.42 µM | – | 4.31 µM | – | 11.4 µM | – | 3.4 µM
CCCCCNC(=O)C1C(=O)N(CCCCC)C(=O)/C1=N\N (stereo unspecified) | – | > 100 µM | – | > 100 µM | – | – | – | > 100 µM | – | – | – | > 100 µM | – | > 100 µM | – | > 100 µM | – | > 100 µM | – | > 100 µM
Clc1ccc(C2=NN(c3ccccc3)C3c4cc(Br)ccc4OCC23)cc1 (stereo unspecified) | – | > 100 µM | – | > 100 µM | – | – | – | > 100 µM | – | – | – | – | – | > 100 µM | – | > 100 µM | – | > 100 µM | – | > 100 µM
O=[N+]([O-])c1ccc(N=Nc2c(O)[nH]c3ccc(Br)cc23)c([N+](=O)[O-])c1 | – | 21 µM | – | 15 µM | – | – | – | 26.2 µM | – | – | – | – | – | 14.8 µM | – | – | – | 3.49 µM | – | 16.3 µM
O=c1[nH]cnc2c1nnn2C1C=C(CO)C(O)C1O (stereo unspecified) | – | > 100 µM | – | – | – | – | – | > 100 µM | – | > 100 µM | – | > 100 µM | – | > 100 µM | – | > 100 µM | – | > 100 µM | – | > 100 µM
c1ccc2c(c1)SCCCSCCCS2 | – | > 100 µM | – | – | – | > 100 µM | – | > 100 µM | – | – | – | > 100 µM | – | > 100 µM | – | > 100 µM | – | > 100 µM | – | > 100 µM
Nc1cc2c3c(cccc3c1)C(=O)N(CCN1CCN(CCN3C(=O)c4cccc5cc(N)cc(c45)C3=O)CC1)C2=O | – | > 100 µM | – | > 100 µM | – | – | – | > 100 µM | – | > 100 µM | – | > 100 µM | – | > 100 µM | – | > 100 µM | – | > 100 µM | – | > 100 µM
COc1ccc(C=O)c(N(C)C(=O)C(C)(C)C)c1 | – | > 100 µM | – | > 100 µM | – | – | – | > 100 µM | – | > 100 µM | – | > 100 µM | – | > 100 µM | – | > 100 µM | – | > 100 µM | – | > 100 µM
CC/C(=C(/CC)c1ccc(OP(=O)([O-])[O-])cc1)c1ccc(OP(=O)([O-])[O-])cc1.N.N.N.N.[Pt+4].[Pt+4] | 1.75 µM | 13.6 µM | 2.13 µM | 6.02 µM | – | – | 1.09 µM | 19.5 µM | 2.31 µM | 4.96 µM | 1.95 µM | 7.54 µM | 1.91 µM | 12.2 µM | 3.51 µM | – | 2.22 µM | 9.34 µM | 0.594 µM | 2.12 µM
C[CH2][Sn]([CH2]C)([O]C(=O)c1cc(OC)c(OC)c(OC)c1)[O][Sn]([CH2]C)([CH2]C)[O]C(=O)c1cc(OC)c(OC)c(OC)c1 | > 100 µM | > 100 µM | 17.3 µM | 32.2 µM | – | – | 25.8 µM | > 85.8 µM | 27.3 µM | 57.9 µM | > 100 µM | > 100 µM | 76.5 µM | > 100 µM | 27.7 µM | 74.9 µM | 74.4 µM | > 100 µM | 18.2 µM | 33.1 µM
Cc1cc2c(C)nn(Cc3ccc(Cl)cc3Cl)c2c(C#N)c1C | – | > 100 µM | – | > 100 µM | – | – | – | > 100 µM | – | > 100 µM | – | – | – | > 100 µM | – | > 100 µM | – | – | – | > 100 µM
CCOc1ccc(NC(=O)/C(=C/c2ccccc2)C(C)=O)cc1 | – | 30.3 µM | – | 31.6 µM | – | – | – | 19.5 µM | – | 32.4 µM | – | 27.5 µM | – | 29.4 µM | – | 23.3 µM | – | 25.6 µM | – | 28.5 µM
CCN1N=CSC12C(=O)N(c1ccccc1)C(=O)N2c1ccccc1 (stereo unspecified) | – | > 100 µM | – | > 100 µM | – | – | – | > 100 µM | – | > 100 µM | – | > 100 µM | – | > 100 µM | – | > 100 µM | – | > 100 µM | – | > 100 µM
COc1ccc(C(=O)Nc2ccccc2C#N)cc1 | – | > 100 µM | – | > 100 µM | – | – | – | – | – | – | – | > 100 µM | – | > 100 µM | – | > 100 µM | – | > 100 µM | – | > 100 µM
